The values that follow are results of earlier work, collected in patent US12220423B2, “Compounds, derivatives, and analogs for cancer” (HYGIA PHARMACEUTICALS, LLC, priority 2018, dated 2025).

Each structure is given as a SMILES string.

This data set relates to KRAS. As to conditions: K-562 cells treated with 750 micromolars of IP6 for 60 min; p<0.05.

As to `O=P(O)(O)O[C@H]1[C@H](OP(=O)(O)O)[C@@H](OP(=O)(O)O)[C@H](OP(=O)(O)O)[C@@H](OP(=O)(O)O)[C@H]1OP(=O)(O)O` [myo inositol hexaphosphate], the “down regulation of KRAS and other relevant genes” value is “down regulates KRAS and other relevant genes significantly”.
